Measurements from PubChem BioAssay AID1918956 (Molecular Pharmacology Branch, DTP, NCI, 2023).
Several values for one entry are separate records, joined by “and”; a condition that tells them apart may be missing. Equal values may be shown once.

Test system: OVCAR-5 complex spheroids, viability
Experiment: Anticancer human tumor OVCAR-5 cell line growth inhibition;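 note: spheroids exposed to agents for seven days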;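 for viability, T/C: 100% = DMSO vehicle control wells viability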
Settings: for viability, T/C: stronger effect = lower value
Summary of the method: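 Drug combinations with the LSD1 inhibitor iadademstat tested on tumor cells co-cultured as spheroids with endothelial cells and mesenchymal stem cells. Concentrations descended in half-log increments from clinical Cmax or 10 microM.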

[1] = curve of first compound, second compound 0.1 µM
[2] = curve of first compound, second compound 0.316 µM
[3] = curve of first compound, second compound 1 µM
[4] = curve of first compound, second compound 3.16 µM
[5] = curve of first compound, second compound 10 µM
[6] = second compound 0.1 µM, first compound 0.00316 µM
[7] = second compound 0.1 µM, first compound 0.01 µM
[8] = second compound 0.1 µM, first compound 0.0316 µM
[9] = second compound 0.1 µM, first compound 0.1 µM
[10] = second compound 0.1 µM, first compound 0.316 µM
[11] = second compound 0.1 µM, first compound 1 µM
[12] = second compound 0.316 µM, first compound 0.00316 µM
[13] = second compound 0.316 µM, first compound 0.01 µM
[14] = second compound 0.316 µM, first compound 0.0316 µM
[15] = second compound 0.316 µM, first compound 0.1 µM
[16] = second compound 0.316 µM, first compound 0.316 µM
[17] = second compound 0.316 µM, first compound 1 µM
[18] = second compound 1 µM, first compound 0.00316 µM
[19] = second compound 1 µM, first compound 0.01 µM
[20] = second compound 1 µM, first compound 0.0316 µM
[21] = second compound 1 µM, first compound 0.1 µM
[22] = second compound 1 µM, first compound 0.316 µM
[23] = second compound 1 µM, first compound 1 µM
[24] = second compound 3.16 µM, first compound 0.00316 µM
[25] = second compound 3.16 µM, first compound 0.01 µM
[26] = second compound 3.16 µM, first compound 0.0316 µM
[27] = second compound 3.16 µM, first compound 0.1 µM
[28] = second compound 3.16 µM, first compound 0.316 µM
[29] = second compound 3.16 µM, first compound 1 µM
[30] = second compound 10 µM, first compound 0.00316 µM
[31] = second compound 10 µM, first compound 0.01 µM
[32] = second compound 10 µM, first compound 0.0316 µM
[33] = second compound 10 µM, first compound 0.1 µM
[34] = second compound 10 µM, first compound 0.316 µM
[35] = second compound 10 µM, first compound 1 µM

O=C(C=Cc1cccc(S(=O)(=O)Nc2ccccc2)c1)NO + NC1CCC(NC2CC2c2ccccc2)CC1
IC50 [1]: 157 nM
IC50 [2]: 172 nM
IC50 [3]: 192 nM
IC50 [4]: 167 nM
IC50 [5]: 173 nM
viability, T/C (second compound 0.1 µM, first compound 0.00949 µM): 98.5%
viability, T/C (second compound 0.1 µM, first compound 0.03 µM): 92.8%
viability, T/C (second compound 0.1 µM, first compound 0.0949 µM): 62.8%
viability, T/C (second compound 0.1 µM, first compound 0.3 µM): 31.2%
viability, T/C (second compound 0.1 µM, first compound 0.949 µM): 15.3%
viability, T/C (second compound 0.1 µM, first compound 3 µM): 4.12%
viability, T/C (second compound 0.316 µM, first compound 0.00949 µM): 95.7%
viability, T/C (second compound 0.316 µM, first compound 0.03 µM): 89.1%
viability, T/C (second compound 0.316 µM, first compound 0.0949 µM): 64.6%
viability, T/C (second compound 0.316 µM, first compound 0.3 µM): 35.5%
viability, T/C (second compound 0.316 µM, first compound 0.949 µM): 14.4%
viability, T/C (second compound 0.316 µM, first compound 3 µM): 3.93%
viability, T/C (second compound 1 µM, first compound 0.00949 µM): 106%
viability, T/C (second compound 1 µM, first compound 0.03 µM): 96%
viability, T/C (second compound 1 µM, first compound 0.0949 µM): 69.7%
viability, T/C (second compound 1 µM, first compound 0.3 µM): 37.8%
viability, T/C (second compound 1 µM, first compound 0.949 µM): 14.3%
viability, T/C (second compound 1 µM, first compound 3 µM): 6.24%
viability, T/C (second compound 3.16 µM, first compound 0.00949 µM): 88%
viability, T/C (second compound 3.16 µM, first compound 0.03 µM): 86.1%
viability, T/C (second compound 3.16 µM, first compound 0.0949 µM): 62.2%
viability, T/C (second compound 3.16 µM, first compound 0.3 µM): 35.3%
viability, T/C (second compound 3.16 µM, first compound 0.949 µM): 15.6%
viability, T/C (second compound 3.16 µM, first compound 3 µM): 3.02%
viability, T/C (second compound 10 µM, first compound 0.00949 µM): 89.5%
viability, T/C (second compound 10 µM, first compound 0.03 µM): 89.2%
viability, T/C (second compound 10 µM, first compound 0.0949 µM): 60%
viability, T/C (second compound 10 µM, first compound 0.3 µM): 37.8%
viability, T/C (second compound 10 µM, first compound 0.949 µM): 16.7%
viability, T/C (second compound 10 µM, first compound 3 µM): 2.99%

COc1cc(Nc2ncc3c(n2)-c2ccc(Cl)cc2C(c2c(F)cccc2OC)=NC3)ccc1C(=O)O + NC1CCC(NC2CC2c2ccccc2)CC1
IC50 [1]: > 1000 nM
IC50 [2]: > 1000 nM
IC50 [3]: 999 nM
IC50 [4]: > 1000 nM
IC50 [5]: > 1000 nM
viability, T/C [6]: 103%
viability, T/C [7]: 99.1%
viability, T/C [8]: 83.5%
viability, T/C [9]: 61%
viability, T/C [10]: 64.1%
viability, T/C [11]: 54.6%
viability, T/C [12]: 94.5%
viability, T/C [13]: 93.2%
viability, T/C [14]: 78.4%
viability, T/C [15]: 64%
viability, T/C [16]: 57.3%
viability, T/C [17]: 56.6%
viability, T/C [18]: 87.3%
viability, T/C [19]: 90.3%
viability, T/C [20]: 80.2%
viability, T/C [21]: 62.7%
viability, T/C [22]: 59.8%
viability, T/C [23]: 47.4%
viability, T/C [24]: 83.6%
viability, T/C [25]: 83.7%
viability, T/C [26]: 75.2%
viability, T/C [27]: 59.3%
viability, T/C [28]: 60.7%
viability, T/C [29]: 52.5%
viability, T/C [30]: 83.5%
viability, T/C [31]: 78.7%
viability, T/C [32]: 79.7%
viability, T/C [33]: 57.6%
viability, T/C [34]: 55.8%
viability, T/C [35]: 45.5%

Nc1ccn(C2OC(CO)C(O)C2(F)F)c(=O)n1 (configuration not stated)
viability, T/C (compound 0.000949 µM): 27.5% and 26.9%
viability, T/C (compound 0.003 µM): 29.6% and 29.3%
viability, T/C (compound 0.00949 µM): 29.2% and 28.1%
viability, T/C (compound 0.03 µM): 28.8% and 29.1%
viability, T/C (compound 0.0949 µM): 30.1% and 28.8%
viability, T/C (compound 0.3 µM): 29.1% and 28.3%
IC50 (curve of compound): < 0.949 nM

CC1COCCN1c1cc(-c2ccnn2C)c2ccnc(-c3ccn[nH]3)c2n1 (configuration not stated) + NC1CCC(NC2CC2c2ccccc2)CC1
IC50 [1]: 61.8 nM
IC50 [2]: 61.9 nM
IC50 [3]: 81.4 nM
IC50 [4]: 71.1 nM
IC50 [5]: 47.7 nM
viability, T/C [6]: 111%
viability, T/C [7]: 86.9%
viability, T/C [8]: 60.4%
viability, T/C [9]: 41.7%
viability, T/C [10]: 37.2%
viability, T/C [11]: 31.6%
viability, T/C [12]: 110%
viability, T/C [13]: 87.7%
viability, T/C [14]: 61.2%
viability, T/C [15]: 41%
viability, T/C [16]: 37.4%
viability, T/C [17]: 32%
viability, T/C [18]: 104%
viability, T/C [19]: 88.8%
viability, T/C [20]: 65.2%
viability, T/C [21]: 46.2%
viability, T/C [22]: 39.4%
viability, T/C [23]: 34.7%
viability, T/C [24]: 83.8%
viability, T/C [25]: 83.4%
viability, T/C [26]: 60.1%
viability, T/C [27]: 46.8%
viability, T/C [28]: 40.7%
viability, T/C [29]: 35.8%
viability, T/C [30]: 79.1%
viability, T/C [31]: 65.9%
viability, T/C [32]: 55%
viability, T/C [33]: 41.9%
viability, T/C [34]: 37.8%
viability, T/C [35]: 33.3%
